Results taken from patent publication US4427689A, “Clavulanic acid 9-deoxy-9-thia derivatives their preparation and use” (Beecham Group Limited, priority 1978, dated 1984).
Read-outs that look alike come from different tables or passages of the source.

Assays:
[1] = system: E.coli E96; assay: In-vivo effect, CD50 in mice infected intraperitoneally with E.coli E96; details: Escherichia coli, E96, sc, subcutaneous at 1 and 5 hours post infection, no synergist, read-out: CD50 of amoxycillin alone
Method: The CD50 in mice infected intraperitoneally with E.coli E96 was determined. Amoxycillin and the synergists were dosed subcutaneously at 1 and 5 hours post infection. The synergists were used at 2 mg/kg.

[2] = system: Proteus C889; assay: MIC of ampicillin alone or in presence of compound (synergistic activity, Demonstration 1), Proteus C889; format: cell-based
Method: (§1) The minimum inhibitory concentration (MIC) of ampicillin alone or in the presence of certain compounds of the invention was determined for several strains of bacteria.

[3] = system: Staph. Russell; assay: MIC of ampicillin alone or in presence of compound (synergistic activity, Demonstration 1), Staph. Russell; format: cell-based; details: Staphylococcus aureus
Method: as §1

[4] = system: Staph. aureus Russell; assay: MIC of ampicillin alone or in presence of compound (synergistic activity, Demonstration 2), Staph. aureus Russell; format: cell-based; details: Staphylococcus aureus
Method: (§2) The MIC of ampicillin alone or in the presence of certain compounds of the invention was determined for certain Gram positive and Gram negative bacteria.

[5] = system: E. coli JT39; assay: MIC of ampicillin alone or in presence of compound (synergistic activity, Demonstration 2), E. coli JT39; format: cell-based; details: Escherichia coli
Method: as §2

[6] = system: Kleb. aerogenes E70; assay: MIC of ampicillin alone or in presence of compound (synergistic activity, Demonstration 2), Kleb. aerogenes E70; format: cell-based; details: Klebsiella aerogenes
Method: as §2

[7] = system: E.coli JT39; assay: MIC of ampicillin alone or in presence of compound (synergistic activity, Demonstration 1), E.coli JT39; format: cell-based; details: Escherichia coli
Method: as §1

[8] = system: Klebsiella E70; assay: MIC of ampicillin alone or in presence of compound (synergistic activity, Demonstration 1), Klebsiella E70; format: cell-based, Kleb. aerogenes; details: E70, compound alone
Method: as §1

[9] = compound conc. 0 μg/ml, read-out: MIC Ampicillin (alone)
[10] = ampicillin alone, read-out: MIC of ampicillin alone
[11] = compound alone, read-out: MIC, compound alone
[12] = compound alone, E. coli JT39, read-out: MIC, compound alone

Compound | MIC [4, 11] | MIC [6, 11] | MIC [5, 11] | other results
CC1(C)S[C@@H]2[C@H](NC(=O)[C@H](N)c3ccc(O)cc3)C(=O)N2[C@H]1C(=O)O [Amoxycillin, amoxycillin] | – | – | – | ED50 [1]: > 1000 mg/kg
CC1(C)S[C@@H]2[C@H](NC(=O)[C@H](N)c3ccccc3)C(=O)N2[C@H]1C(=O)O [Ampicillin, ampicillin, reference compound] | – | – | – | MIC Ampicillin (alone) ([2]; compound conc. 0 μg/ml): 1000 µg/mL; MIC [2, 9]: > 2000 µg/mL; MIC [3, 9]: 500 µg/mL; MIC [4, 10]: 125 to 500 µg/mL; MIC [5, 10]: ≥ 2000 µg/mL; MIC [6, 10]: 500 to 2000 µg/mL; MIC ([7]; compound conc. 0 μg/ml, E.coli JT39, read-out: MIC Ampicillin (alone)): 2000 µg/mL
O=C1CC(SC/C=C2\O[C@@H]3CC(=O)N3[C@H]2C(=O)O)N1 (some centres unmarked) [Example 2, Sodium 9-deoxy-9-thio-(azetidin-2'-on-4'-yl) clavulanate] | 31.2 µg/mL | 16 µg/mL | – | MIC [2, 11]: 15 µg/mL; MIC [8]: 15 µg/mL; MIC [3, 11]: 31.2 µg/mL; MIC [7, 12]: 31.2 µg/mL
O=C(NCSC/C=C1\O[C@@H]2CC(=O)N2[C@H]1C(=O)O)c1ccccc1 [Example 6, Sodium 9-deoxy-9-thio (N-benzoylaminomethyl) clavulanate] | 16 µg/mL | 500 µg/mL | – | MIC [2, 11]: 125 µg/mL; MIC [8]: 500 µg/mL; MIC [3, 11]: 16 µg/mL; MIC [7, 12]: 250 µg/mL
O=C(O)[C@H]1/C(=C/CSCN2CCCC2=O)O[C@@H]2CC(=O)N21 [Example 8, Sodium 9-(2-oxopyrrolidin-1-ylmethylthio)-9-deoxyclavulate] | 62.5 µg/mL | 250 µg/mL | 250 µg/mL | –
O=C(O)[C@H]1/C(=C/CS(=O)(=O)CN2CCCC2=O)O[C@@H]2CC(=O)N21 [Example 10, Sodium 9-(2-oxopyrrolidin-1-ylmethylsulphonyl)-9-deoxyclavulanate] | 31.2 µg/mL | 62.5 µg/mL | 62.5 µg/mL | –
CC(NC=O)SC/C=C1\O[C@@H]2CC(=O)N2[C@H]1C(=O)O (some centres unmarked) [Example 13, Sodium 9-(1-formamidoethylthio)-9-deoxyclavulanate] | 16 µg/mL | 62.5 µg/mL | 125 µg/mL | –
CC(=O)NCSC/C=C1\O[C@@H]2CC(=O)N2[C@H]1C(=O)O [Example 20, Sodium 9-(acetamidomethylthio)-9-deoxyclavulanate] | 4 µg/mL | 62.5 µg/mL | 62.5 µg/mL | –
CC(=O)NC[S+]([O-])C/C=C1\O[C@@H]2CC(=O)N2[C@H]1C(=O)O (some centres unmarked) [Example 21, Sodium 9-(acetamidomethylsulphinyl)-9-deoxyclavulanate] | 125 µg/mL | 125 µg/mL | 62.5 µg/mL | –
CC(=O)NCS(=O)(=O)C/C=C1\O[C@@H]2CC(=O)N2[C@H]1C(=O)O [Example 22, Sodium 9-(acetamidomethylsuphonyl)-9-deoxyclavulanate] | 62.5 µg/mL | 62.5 µg/mL | 31.2 µg/mL | –
